Measured values published in PubChem BioAssay (NCI).
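Compound exposure: 48 hours, 5 concentrations, 96-well plates. At the TGI there is no net growth.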

How the values were obtained:
Assay in all cases: NCI tumour cell line growth inhibition, 48 h
MOLT-4 leukemia = system: MOLT-4 leukemia
LXFL 529 NSCLC = system: LXFL 529 NSCLC
LOX IMVI melanoma = system: LOX IMVI melanoma
SR leukemia = system: SR leukemia
U251 CNS = system: U251 CNS
HOP-62 NSCLC = system: HOP-62 NSCLC
HT29 colon = system: HT29 colon
SNB-78 CNS = system: SNB-78 CNS
786-0 renal = system: 786-0 renal
EKVX NSCLC = system: EKVX NSCLC
HCT-15 colon = system: HCT-15 colon
OVCAR-3 ovarian = system: OVCAR-3 ovarian
DMS 273 small cell lung = system: DMS 273 small cell lung
M19-MEL melanoma = system: M19-MEL melanoma
A549 NSCLC = system: A549 NSCLC
IGROV1 ovarian = system: IGROV1 ovarian
K-562 leukemia = system: K-562 leukemia
XF 498 CNS = system: XF 498 CNS
SK-OV-3 ovarian = system: SK-OV-3 ovarian
NCI-H226 lung = system: NCI-H226 lung
DLD-1 colon = system: DLD-1 colon
NCI-H460 lung = system: NCI-H460 lung
SN12C renal = system: SN12C renal
SK-MEL-2 melanoma = system: SK-MEL-2 melanoma
KM12 colon = system: KM12 colon
COLO 205 colon = system: COLO 205 colon
TK-10 renal = system: TK-10 renal
SNB-75 CNS = system: SNB-75 CNS
OVCAR-5 ovarian = system: OVCAR-5 ovarian
KM20L2 colon = system: KM20L2 colon
HCT-116 colon = system: HCT-116 colon
SW-620 colon = system: SW-620 colon
UACC-257 melanoma = system: UACC-257 melanoma
DMS 114 small cell lung = system: DMS 114 small cell lung
SNB-19 CNS = system: SNB-19 CNS
M14 melanoma = system: M14 melanoma
UACC-62 melanoma = system: UACC-62 melanoma
HCC-2998 colon = system: HCC-2998 colon
HOP-18 NSCLC = system: HOP-18 NSCLC
SK-MEL-28 melanoma = system: SK-MEL-28 melanoma
NCI-H522 lung = system: NCI-H522 lung
MALME-3M melanoma = system: MALME-3M melanoma
CCRF-CEM leukemia = system: CCRF-CEM leukemia
RPMI-8226 leukemia = system: RPMI-8226 leukemia
OVCAR-8 ovarian = system: OVCAR-8 ovarian
SF-539 CNS = system: SF-539 CNS
RXF 393 renal = system: RXF 393 renal
SK-MEL-5 melanoma = system: SK-MEL-5 melanoma
NCI-H23 lung = system: NCI-H23 lung
UO-31 renal = system: UO-31 renal
SF-295 CNS = system: SF-295 CNS
HL-60(TB) leukemia = system: HL-60(TB) leukemia
ACHN renal = system: ACHN renal
A498 renal = system: A498 renal
CAKI-1 renal = system: CAKI-1 renal
RXF-631 renal = system: RXF-631 renal
SF-268 CNS = system: SF-268 CNS
OVCAR-4 ovarian = system: OVCAR-4 ovarian
HOP-92 NSCLC = system: HOP-92 NSCLC

## Clc1ccc(C[P+]2(c3ccccc3)CCCCC2)cc1
MOLT-4 leukemia
  TGI: > 100 µM
LXFL 529 NSCLC
  TGI: > 100 µM
LOX IMVI melanoma
  TGI: > 100 µM
SR leukemia
  TGI: > 100 µM
U251 CNS
  TGI: > 100 µM
HOP-62 NSCLC
  TGI: > 100 µM
HT29 colon
  TGI: > 100 µM
SNB-78 CNS
  TGI: > 100 µM
786-0 renal
  TGI: > 100 µM
EKVX NSCLC
  TGI: > 100 µM
HCT-15 colon
  TGI: > 100 µM
OVCAR-3 ovarian
  TGI: > 100 µM
DMS 273 small cell lung
  TGI: > 100 µM
M19-MEL melanoma
  TGI: > 100 µM
A549 NSCLC
  TGI: > 100 µM
IGROV1 ovarian
  TGI: > 100 µM
K-562 leukemia
  TGI: > 100 µM
XF 498 CNS
  TGI: 86.7 µM
SK-OV-3 ovarian
  TGI: > 100 µM
NCI-H226 lung
  TGI: > 100 µM
DLD-1 colon
  TGI: > 100 µM
NCI-H460 lung
  TGI: > 100 µM
SN12C renal
  TGI: > 100 µM
SK-MEL-2 melanoma
  TGI: > 100 µM
KM12 colon
  TGI: > 100 µM
COLO 205 colon
  TGI: > 100 µM
TK-10 renal
  TGI: > 100 µM
SNB-75 CNS
  TGI: > 100 µM
OVCAR-5 ovarian
  TGI: > 100 µM
KM20L2 colon
  TGI: > 100 µM
HCT-116 colon
  TGI: > 100 µM
SW-620 colon
  TGI: > 100 µM
UACC-257 melanoma
  TGI: 89.5 µM
DMS 114 small cell lung
  TGI: > 100 µM
SNB-19 CNS
  TGI: > 100 µM
M14 melanoma
  TGI: > 100 µM
UACC-62 melanoma
  TGI: > 100 µM
HCC-2998 colon
  TGI: > 100 µM
HOP-18 NSCLC
  TGI: > 100 µM
SK-MEL-28 melanoma
  TGI: > 100 µM
NCI-H522 lung
  TGI: > 100 µM
MALME-3M melanoma
  TGI: > 100 µM
CCRF-CEM leukemia
  TGI: > 100 µM
RPMI-8226 leukemia
  TGI: > 100 µM
OVCAR-8 ovarian
  TGI: > 100 µM
SF-539 CNS
  TGI: > 100 µM
RXF 393 renal
  TGI: > 100 µM
SK-MEL-5 melanoma
  TGI: 43.3 µM
NCI-H23 lung
  TGI: > 100 µM
UO-31 renal
  TGI: > 100 µM
SF-295 CNS
  TGI: > 100 µM
HL-60(TB) leukemia
  TGI: 93.9 µM
ACHN renal
  TGI: > 100 µM
A498 renal
  TGI: > 100 µM

## COC(=O)C(Br)C1CCc2ccccc21 (stereo not drawn)
MOLT-4 leukemia
  TGI: > 100 µM
LXFL 529 NSCLC
  TGI: > 100 µM
LOX IMVI melanoma
  TGI: > 100 µM
CAKI-1 renal
  TGI: > 100 µM
SR leukemia
  TGI: > 100 µM
U251 CNS
  TGI: > 100 µM
HOP-62 NSCLC
  TGI: > 100 µM
HT29 colon
  TGI: > 100 µM
786-0 renal
  TGI: > 100 µM
HCT-15 colon
  TGI: > 100 µM
OVCAR-3 ovarian
  TGI: > 100 µM
DMS 273 small cell lung
  TGI: > 100 µM
M19-MEL melanoma
  TGI: > 100 µM
A549 NSCLC
  TGI: > 100 µM
IGROV1 ovarian
  TGI: > 100 µM
K-562 leukemia
  TGI: > 100 µM
SK-OV-3 ovarian
  TGI: > 100 µM
NCI-H226 lung
  TGI: > 100 µM
DLD-1 colon
  TGI: > 100 µM
NCI-H460 lung
  TGI: > 100 µM
SN12C renal
  TGI: > 100 µM
RXF-631 renal
  TGI: > 100 µM
COLO 205 colon
  TGI: > 100 µM
TK-10 renal
  TGI: > 100 µM
OVCAR-5 ovarian
  TGI: > 100 µM
KM20L2 colon
  TGI: > 100 µM
SF-268 CNS
  TGI: > 100 µM
HCT-116 colon
  TGI: > 100 µM
SW-620 colon
  TGI: > 100 µM
OVCAR-4 ovarian
  TGI: > 100 µM
UACC-257 melanoma
  TGI: > 100 µM
DMS 114 small cell lung
  TGI: > 100 µM
HOP-92 NSCLC
  TGI: > 100 µM
SNB-19 CNS
  TGI: > 100 µM
M14 melanoma
  TGI: > 100 µM
UACC-62 melanoma
  TGI: > 100 µM
HCC-2998 colon
  TGI: > 100 µM
HOP-18 NSCLC
  TGI: > 100 µM
SK-MEL-28 melanoma
  TGI: > 100 µM
MALME-3M melanoma
  TGI: > 100 µM
CCRF-CEM leukemia
  TGI: > 100 µM
RPMI-8226 leukemia
  TGI: > 100 µM
OVCAR-8 ovarian
  TGI: > 100 µM
SK-MEL-5 melanoma
  TGI: > 100 µM
NCI-H23 lung
  TGI: > 100 µM
UO-31 renal
  TGI: > 100 µM
SF-295 CNS
  TGI: > 100 µM
HL-60(TB) leukemia
  TGI: > 100 µM
ACHN renal
  TGI: > 100 µM
A498 renal
  TGI: > 100 µM

## C=C1C(OC(=O)/C=C/c2ccccc2)CC(OC(C)=O)C2(C)C1CC1CC(OC(C)=O)C(C)=C(C(OC(C)=O)C2OC(C)=O)C1(C)C (stereo not drawn)
MOLT-4 leukemia
  TGI: > 100 µM
LXFL 529 NSCLC
  TGI: > 100 µM
LOX IMVI melanoma
  TGI: > 100 µM
CAKI-1 renal
  TGI: > 100 µM
SR leukemia
  TGI: > 100 µM
U251 CNS
  TGI: > 100 µM
HOP-62 NSCLC
  TGI: > 100 µM
HT29 colon
  TGI: > 100 µM
SNB-78 CNS
  TGI: > 100 µM
786-0 renal
  TGI: > 100 µM
HCT-15 colon
  TGI: > 100 µM
DMS 273 small cell lung
  TGI: > 100 µM
M19-MEL melanoma
  TGI: > 100 µM
A549 NSCLC
  TGI: > 100 µM
IGROV1 ovarian
  TGI: > 100 µM
K-562 leukemia
  TGI: > 100 µM
SK-OV-3 ovarian
  TGI: > 100 µM
NCI-H226 lung
  TGI: > 100 µM
NCI-H460 lung
  TGI: > 100 µM
SN12C renal
  TGI: > 100 µM
RXF-631 renal
  TGI: > 100 µM
KM12 colon
  TGI: > 100 µM
COLO 205 colon
  TGI: > 100 µM
TK-10 renal
  TGI: > 100 µM
SNB-75 CNS
  TGI: > 100 µM
OVCAR-5 ovarian
  TGI: > 100 µM
KM20L2 colon
  TGI: > 100 µM
SF-268 CNS
  TGI: > 100 µM
HCT-116 colon
  TGI: > 100 µM
SW-620 colon
  TGI: > 100 µM
DMS 114 small cell lung
  TGI: > 100 µM
HOP-92 NSCLC
  TGI: > 100 µM
SNB-19 CNS
  TGI: > 100 µM
M14 melanoma
  TGI: > 100 µM
UACC-62 melanoma
  TGI: > 100 µM
HCC-2998 colon
  TGI: > 100 µM
HOP-18 NSCLC
  TGI: > 100 µM
NCI-H522 lung
  TGI: > 100 µM
MALME-3M melanoma
  TGI: > 100 µM
CCRF-CEM leukemia
  TGI: > 100 µM
RPMI-8226 leukemia
  TGI: > 100 µM
OVCAR-8 ovarian
  TGI: > 100 µM
SF-539 CNS
  TGI: > 100 µM
SK-MEL-5 melanoma
  TGI: > 100 µM
UO-31 renal
  TGI: > 100 µM
SF-295 CNS
  TGI: > 100 µM
A498 renal
  TGI: > 100 µM

## C/C=C1\CN2CCc3c([nH]c4ccccc34)C2C=C1CCO (stereo not drawn)
MOLT-4 leukemia
  TGI: > 340 µM
LXFL 529 NSCLC
  TGI: > 340 µM
LOX IMVI melanoma
  TGI: > 340 µM
CAKI-1 renal
  TGI: > 340 µM
SR leukemia
  TGI: > 340 µM
U251 CNS
  TGI: > 340 µM
HOP-62 NSCLC
  TGI: > 340 µM
HT29 colon
  TGI: > 340 µM
786-0 renal
  TGI: > 340 µM
EKVX NSCLC
  TGI: > 340 µM
HCT-15 colon
  TGI: > 340 µM
OVCAR-3 ovarian
  TGI: > 340 µM
DMS 273 small cell lung
  TGI: > 340 µM
M19-MEL melanoma
  TGI: > 340 µM
A549 NSCLC
  TGI: > 340 µM
IGROV1 ovarian
  TGI: > 340 µM
K-562 leukemia
  TGI: > 340 µM
XF 498 CNS
  TGI: > 340 µM
SK-OV-3 ovarian
  TGI: > 340 µM
NCI-H226 lung
  TGI: > 340 µM
DLD-1 colon
  TGI: > 340 µM
NCI-H460 lung
  TGI: > 340 µM
SN12C renal
  TGI: > 340 µM
SK-MEL-2 melanoma
  TGI: > 340 µM
RXF-631 renal
  TGI: > 340 µM
KM12 colon
  TGI: > 340 µM
COLO 205 colon
  TGI: > 340 µM
TK-10 renal
  TGI: > 340 µM
OVCAR-5 ovarian
  TGI: > 340 µM
KM20L2 colon
  TGI: > 340 µM
SF-268 CNS
  TGI: > 340 µM
HCT-116 colon
  TGI: > 340 µM
SW-620 colon
  TGI: > 340 µM
UACC-257 melanoma
  TGI: > 340 µM
DMS 114 small cell lung
  TGI: > 340 µM
HOP-92 NSCLC
  TGI: > 340 µM
SNB-19 CNS
  TGI: > 340 µM
UACC-62 melanoma
  TGI: > 340 µM
HCC-2998 colon
  TGI: > 340 µM
SK-MEL-28 melanoma
  TGI: > 340 µM
NCI-H522 lung
  TGI: > 340 µM
MALME-3M melanoma
  TGI: > 340 µM
CCRF-CEM leukemia
  TGI: > 340 µM
RPMI-8226 leukemia
  TGI: > 340 µM
OVCAR-8 ovarian
  TGI: > 340 µM
SF-539 CNS
  TGI: > 340 µM
RXF 393 renal
  TGI: > 340 µM
SK-MEL-5 melanoma
  TGI: > 340 µM
NCI-H23 lung
  TGI: > 340 µM
SF-295 CNS
  TGI: > 340 µM
HL-60(TB) leukemia
  TGI: > 340 µM
ACHN renal
  TGI: > 340 µM
